{"source": "patent US20250066286A1", "about": "“COMPOSITIONS OF (Z)-ENDOXIFEN AND METHODS OF ENRICHMENT THEREOF” (Atossa Therapeutics, Inc., priority 2022, published 2025)", "assay": "Solubility testing of (Z)-endoxifen in single solvents", "format": "physicochemical", "settings": "for solubility at 15 min: 25 °C; for solubility at 15 min / solubility: organic solvent or mixture, thermodynamic from solid", "procedure": "To test the solubility of (Z)-endoxifen in varying conditions, 10 mg of (Z)-endoxifen was added to a stoppered tube, and 0.01 ml of the selected solvent was added (1000 mg/ml solution). The tube was shaken vigorously for 1 minute and then incubated at a constant temperature of 25.0° C. for 15 minutes. If the solid was not completed dissolved, the tube was shaken again and placed at the constant temperature of 25.0° C. for another 15 minutes. If the solid was completely dissolved at this step, it was considered to be very soluble in the selected solvent system. If the solid was not dissolved by this step, another 0.09 ml was added (yielding a 100 mg/ml solution) and an attempt to further dissolve the solid was made by the same steps of shaking and incubating twice over as described previously. If the solid was completely dissolved at this step, it was considered freely soluble. If the solid was not dissolved by this step another 0.2 ml was added (yielding a 33.3 mg/ml solution) and an attempt to further dissolve the solid was made by the same steps of shaking and incubating twice over as described previously. If the solid was completely dissolved at this step, it was considered soluble. If the solid was not dissolved by this step another, 0.7 ml was added (yielding a 10 mg/ml solution) and an attempt to further dissolve the solid was made by the same steps of shaking and incubating twice over as described previously. If the solid was completely dissolved at this step, it was considered sparingly soluble. If the solid was not dissolved by this step the sample was considered to be slightly soluble or very slightly soluble and the solution was heated until the boiling point of the solvent system (max 100° C.) under stirring with a rate of 0.5° C. per minute temperature ramp rate to verify the solubility at high temperatures. The hot solution was after cooled to room temperature with a cooling rate of 0.5° C. per minute to verify if the sample had precipitated after up to 18 hours under magnetic stirring. The same procedure was also used for the solvent mixture solubility tests. The concentrations investigated for the solvent mixture stability were 40 mg/ml and 100 mg/ml. Some solutions in the following example were precipitated by cooling of the solution from a temperature between 50-100° C. to between 10-25° C. at a rate ranging from −0.2 to −0.5° C./minute resulting in a precipitate.", "note": "Where two headings read alike, the source gives them in different places.", "data": [{"smiles": "CC/C(=C(\\c1ccc(O)cc1)c1ccc(OCCNC)cc1)c1ccccc1", "note": "[(Z)-endoxifen, (Z)-4-(1-(4-(2-(methylamino)ethoxy)phenyl)-2-phenylbut-1-enyl)phenol]", "values": [{"measurement": "solubility at 15 min", "setting": "2-propanol, 2-propanol, room temperature, read-out: Solubility", "result": 10000, "unit": "µg/mL"}, {"measurement": "solubility at 15 min", "setting": "2-propanol, solvent 2-propanol, room temperature, read-out: Solubility at RT", "result": 10000, "unit": "µg/mL"}, {"measurement": "solubility", "setting": "2-propanol, 2-propanol, high temperature, read-out: Solubility", "result": "20000 to 100000", "unit": "µg/mL"}, {"measurement": "solubility at 15 min", "setting": "4-met-2-pentanone, 4-met-2-pentanone, room temperature, read-out: Solubility", "result": 10000, "unit": "µg/mL"}, {"measurement": "solubility", "setting": "4-met-2-pentanone, 4-met-2-pentanone, high temperature, read-out: Solubility", "result": "100000 to 200000", "unit": "µg/mL"}, {"measurement": "solubility at 15 min", "setting": "DMF, DMF, read-out: Solubility", "result": "250000 to 500000", "unit": "µg/mL"}, {"measurement": "solubility at 15 min", "setting": "THF, THF, read-out: Solubility", "result": "111000 to 125000", "unit": "µg/mL"}, {"measurement": "solubility at 15 min", "setting": "acetone, acetone, room temperature, read-out: Solubility", "result": 10000, "unit": "µg/mL"}, {"measurement": "solubility at 15 min", "setting": "acetone, solvent acetone, room temperature, read-out: Solubility at RT", "result": 10000, "unit": "µg/mL"}, {"measurement": "solubility", "setting": "acetone, acetone, high temperature, read-out: Solubility", "result": "< 50000", "unit": "µg/mL"}, {"measurement": "solubility", "setting": "acetone, solvent acetone, 100 mg/mL, high temperature, read-out: Solubility HT (100 mg/mL): Sol. HT", "result": "< 100000", "unit": "µg/mL"}, {"measurement": "solubility at 15 min", "setting": "acetonitrile, acetonitrile, room temperature, read-out: Solubility", "result": "< 10000", "unit": "µg/mL"}, {"measurement": "solubility at 15 min", "setting": "acetonitrile, solvent acetonitrile, room temperature, read-out: Solubility at RT", "result": "< 10000", "unit": "µg/mL"}, {"measurement": "solubility", "setting": "acetonitrile, acetonitrile, high temperature, read-out: Solubility", "result": "20000 to 100000", "unit": "µg/mL"}, {"measurement": "solubility", "setting": "acetonitrile, solvent acetonitrile, 100 mg/mL, high temperature, read-out: Solubility HT (100 mg/mL): Sol. HT", "result": "< 100000", "unit": "µg/mL"}, {"measurement": "solubility at 15 min", "setting": "butyl acetate, butyl acetate, room temperature, read-out: Solubility", "result": 10000, "unit": "µg/mL"}, {"measurement": "solubility at 15 min", "setting": "butyl acetate, solvent butyl acetate, room temperature, read-out: Solubility at RT", "result": 10000, "unit": "µg/mL"}, {"measurement": "solubility", "setting": "butyl acetate, butyl acetate, high temperature, read-out: Solubility", "result": "20000 to 100000", "unit": "µg/mL"}, {"measurement": "solubility at 15 min", "setting": "butyl methyl ether, solvent butyl methyl ether, room temperature, read-out: Solubility at RT", "result": 10000, "unit": "µg/mL"}, {"measurement": "solubility", "setting": "butyl methyl ether, solvent butyl methyl ether, 10 mg/mL, high temperature, read-out: Solubility HT (10 mg/mL): Sol. HT", "result": "< 10000", "unit": "µg/mL"}, {"measurement": "solubility at 15 min", "setting": "dimethylformamide (stored as limethylformamide), solvent limethylformamide, room temperature, read-out: Solubility at RT", "result": "200000 to 250000", "unit": "µg/mL"}, {"measurement": "solubility at 15 min", "setting": "ethanol, ethanol, room temperature, read-out: Solubility", "result": 10000, "unit": "µg/mL"}, {"measurement": "solubility at 15 min", "setting": "ethanol, solvent ethanol, room temperature, read-out: Solubility at RT", "result": 10000, "unit": "µg/mL"}, {"measurement": "solubility", "setting": "ethanol, ethanol, high temperature, read-out: Solubility", "result": "20000 to 100000", "unit": "µg/mL"}, {"measurement": "solubility at 15 min", "setting": "ethyl acetate, ethyl acetate, room temperature, read-out: Solubility", "result": 10000, "unit": "µg/mL"}, {"measurement": "solubility at 15 min", "setting": "ethyl acetate, solvent ethyl acetate, room temperature, read-out: Solubility at RT", "result": 10000, "unit": "µg/mL"}, {"measurement": "solubility", "setting": "ethyl acetate, ethyl acetate, high temperature, read-out: Solubility", "result": "20000 to 100000", "unit": "µg/mL"}, {"measurement": "solubility at 15 min", "setting": "heptane, heptane, room temperature, read-out: Solubility", "result": "< 10000", "unit": "µg/mL"}, {"measurement": "solubility at 15 min", "setting": "heptane, solvent heptane, room temperature, read-out: Solubility at RT", "result": "< 10000", "unit": "µg/mL"}, {"measurement": "solubility", "setting": "heptane, heptane, high temperature, read-out: Solubility", "result": "< 10000", "unit": "µg/mL"}, {"measurement": "solubility", "setting": "heptane, solvent heptane, 10 mg/mL, high temperature, read-out: Solubility HT (10 mg/mL): Sol. HT", "result": "< 10000", "unit": "µg/mL"}, {"measurement": "solubility at 15 min", "setting": "methanol, methanol, read-out: Solubility", "result": "17000 to 20000", "unit": "µg/mL"}, {"measurement": "solubility at 15 min", "setting": "methanol, solvent methanol, room temperature, read-out: Solubility at RT", "result": "17000 to 20000", "unit": "µg/mL"}, {"measurement": "solubility at 15 min", "setting": "methyl isobutyl ketone (4-methyl-2-pentanone), solvent methyl isobutyl ketone (4-methyl-2-pentanone), room temperature, read-out: Solubility at RT", "result": 10000, "unit": "µg/mL"}, {"measurement": "Solubility HT (10 mg/mL): Clear point", "setting": "solvent 2-propanol, 10 mg/mL", "result": 44, "unit": "°C"}, {"measurement": "Solubility HT (10 mg/mL): Sol. HT", "setting": "solvent 2-propanol, 10 mg/mL, high temperature", "result": "YES"}, {"measurement": "Solubility HT (20 mg/mL): Clear point", "setting": "solvent 2-propanol, 20 mg/mL", "result": 50.6, "unit": "°C"}, {"measurement": "Solubility HT (20 mg/mL): Sol. HT", "setting": "solvent 2-propanol, 20 mg/mL, high temperature", "result": "YES"}, {"measurement": "Solubility HT (20 mg/mL): Re-PPT", "setting": "solvent 2-propanol, 20 mg/mL, on cooling", "result": "YES"}, {"measurement": "Solubility HT (100 mg/mL): Clear point", "setting": "solvent 2-propanol, 100 mg/mL", "result": 74.4, "unit": "°C"}, {"measurement": "Solubility HT (100 mg/mL): Cloudy point", "setting": "solvent 2-propanol, 100 mg/mL", "result": 43.9, "unit": "°C"}, {"measurement": "Solubility HT (100 mg/mL): Sol. HT", "setting": "solvent 2-propanol, 100 mg/mL, high temperature", "result": "YES"}, {"measurement": "Solubility HT (100 mg/mL): Re-PPT", "setting": "solvent 2-propanol, 100 mg/mL, on cooling", "result": "YES"}, {"measurement": "Solubility HT (10 mg/mL): Clear point", "setting": "solvent acetone, 10 mg/mL", "result": 30, "unit": "°C"}, {"measurement": "Solubility HT (10 mg/mL): Sol. HT", "setting": "solvent acetone, 10 mg/mL, high temperature", "result": "YES"}, {"measurement": "Solubility HT (20 mg/mL): Clear point", "setting": "solvent acetone, 20 mg/mL", "result": 38, "unit": "°C"}, {"measurement": "Solubility HT (20 mg/mL): Re-PPT after 18 hours at −20° C.", "setting": "solvent acetone, 20 mg/mL", "result": "YES"}, {"measurement": "Solubility HT (20 mg/mL): Sol. HT", "setting": "solvent acetone, 20 mg/mL, high temperature", "result": "YES"}, {"measurement": "Solubility HT (10 mg/mL): Clear point", "setting": "solvent acetonitrile, 10 mg/mL", "result": 56, "unit": "°C"}, {"measurement": "Solubility HT (10 mg/mL): Sol. HT", "setting": "solvent acetonitrile, 10 mg/mL, high temperature", "result": "YES"}, {"measurement": "Solubility HT (10 mg/mL): Re-PPT", "setting": "solvent acetonitrile, 10 mg/mL, on cooling", "result": "YES"}, {"measurement": "Solubility HT (20 mg/mL): Clear point", "setting": "solvent acetonitrile, 20 mg/mL", "result": 75, "unit": "°C"}, {"measurement": "Solubility HT (20 mg/mL): Sol. HT", "setting": "solvent acetonitrile, 20 mg/mL, high temperature", "result": "YES"}, {"measurement": "Solubility HT (20 mg/mL): Re-PPT", "setting": "solvent acetonitrile, 20 mg/mL, on cooling", "result": "YES"}]}]}
